{"source": "paper PMC11320730", "about": "“5-Methoxy-2-aminoindane Reverses Diet-Induced Obesity and Improves Metabolic Parameters in Mice: A Potential New Class of Antiobesity Therapeutics” (ACS Pharmacology & Translational Science, 2024)", "key": {"[1]": {"molecular_target": "5-HT2B (Homo sapiens, UniProt P41595)", "sequence (P41595 whole entry)": "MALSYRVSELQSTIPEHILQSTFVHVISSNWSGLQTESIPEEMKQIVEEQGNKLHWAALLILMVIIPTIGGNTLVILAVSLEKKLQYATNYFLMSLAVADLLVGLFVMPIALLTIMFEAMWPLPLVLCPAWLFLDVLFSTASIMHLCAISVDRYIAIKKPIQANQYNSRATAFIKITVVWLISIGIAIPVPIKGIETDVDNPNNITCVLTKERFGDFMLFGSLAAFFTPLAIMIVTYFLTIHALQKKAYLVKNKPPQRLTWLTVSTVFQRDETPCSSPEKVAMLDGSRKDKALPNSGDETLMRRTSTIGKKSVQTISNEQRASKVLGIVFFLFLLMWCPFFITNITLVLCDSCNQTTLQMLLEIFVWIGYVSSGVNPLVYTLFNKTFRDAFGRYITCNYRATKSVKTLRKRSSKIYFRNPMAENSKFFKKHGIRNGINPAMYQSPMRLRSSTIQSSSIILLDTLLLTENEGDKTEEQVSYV", "experiment": "Ligand binding assay (Eurofins)", "design": "Eurofins (contract screening service)", "details": "read-out: inhibitory activity (% inhibition of the binding of a specific ligand)", "experimental": "(§1) MEAI at 10 μM was tested in ligand binding assays at Eurofins Inc., as described previously.[20] Compound binding was calculated as a % inhibition of the binding of a ligand specific for each target. Results showing an inhibition or stimulation higher than 50% are considered to represent significant effects of MEAI. In each experiment, and if applicable, the respective reference compound was tested concurrently with MEAI and the data were compared with historical values determined at Eurofins. The experiment was accepted in accordance with the Eurofins validation Standard Operating Procedure."}, "[2]": {"system": "DIO C57BL/6 mice", "experiment": "Glucose tolerance test (ipGTT) and insulin tolerance test (ipITT) in DIO mice", "assay_type": "in vivo", "details": "40 mg/kg/day", "experimental": "Male C57BL/6 mice were used to establish DIO by feeding them a high-fat diet (HFD; 60% cal/L fat, 20% cal/L protein, and 20% cal/L carbohydrates; Research Diet, D12492) for 18 weeks. After this period, mice were treated with either vehicle (sterile water, N = 8) or MEAI (N = 11) daily for 28 days by gavage at a dose of 40 mg/kg/day. Age-matched control mice (N = 10) on a standard diet (STD; 14% kcal fat, 24% kcal protein, 62% kcal carbohydrates; NIH-31 rodent diet) received vehicle daily. The body weight of all mice was monitored daily, and total body fat and lean mass were determined by EchoMRI-100H (Echo Medical Systems LLC, Houston, Texas, USA). On day 29, at the end of the experimental period, mice were euthanized by a cervical dislocation under anesthesia. The kidneys, brain, liver, and fat pads were removed and weighed, and samples were either snap-frozen or fixed in buffered 4% formalin. Trunk blood was collected to determine the biochemical parameters.\nOn day 25 of the experiment, mice were subjected to an overnight fasting and then injected with glucose (1.5 g/kg i.p.) on the following day (day 26). Blood glucose levels were determined at 0, 15, 30, 45, 60, 90, and 120 min after injection using the Contour glucometer (Bayer, Pittsburgh, Pennsylvania, USA). The mice were then fasted for 6 h the next day (day 27) before being administered insulin (0.75 U/kg, i.p.; Actrapid vials, Novo Nordisk A/S, Bagsværd, Denmark). Blood glucose levels were determined at the same intervals as those described above. To assess insulin resistance, the homeostasis model assessment insulin resistance (HOMA-IR) was calculated as fasting serum insulin ([μU/mL] × fasting plasma glucose [mmol/L]/22.5). The relative insulin sensitivity index (ISI) was calculated as 1/(glucose × insulin) × 1000, with glucose expressed as mg/dL and insulin as mU/L."}, "[3]": {"molecular_target": "T1, 5-HT1A (Homo sapiens, UniProt P08908)", "T1 construct": "Eurofins (contract screening service)", "T1 sequence (P08908 whole entry, species assumed)": "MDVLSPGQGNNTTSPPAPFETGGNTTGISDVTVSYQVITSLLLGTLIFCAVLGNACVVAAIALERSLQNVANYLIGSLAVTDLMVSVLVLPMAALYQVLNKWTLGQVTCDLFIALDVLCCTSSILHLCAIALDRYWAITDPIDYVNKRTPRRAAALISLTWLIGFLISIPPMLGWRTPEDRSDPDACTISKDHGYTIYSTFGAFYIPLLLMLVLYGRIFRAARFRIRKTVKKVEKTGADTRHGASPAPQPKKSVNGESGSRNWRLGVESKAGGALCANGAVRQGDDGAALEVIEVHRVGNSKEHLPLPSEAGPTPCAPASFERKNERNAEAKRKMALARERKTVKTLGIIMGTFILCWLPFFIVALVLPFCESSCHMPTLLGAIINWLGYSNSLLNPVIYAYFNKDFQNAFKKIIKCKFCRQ", "experiment": "Ligand binding assay (Eurofins)", "details": "read-out: inhibitory activity (% inhibition of the binding of a specific ligand)", "experimental": "as §1"}, "[4]": {"molecular_target": "T2, 5-HT2A (Homo sapiens, UniProt P28223)", "T2 construct": "Eurofins (contract screening service)", "T2 sequence (P28223 whole entry)": "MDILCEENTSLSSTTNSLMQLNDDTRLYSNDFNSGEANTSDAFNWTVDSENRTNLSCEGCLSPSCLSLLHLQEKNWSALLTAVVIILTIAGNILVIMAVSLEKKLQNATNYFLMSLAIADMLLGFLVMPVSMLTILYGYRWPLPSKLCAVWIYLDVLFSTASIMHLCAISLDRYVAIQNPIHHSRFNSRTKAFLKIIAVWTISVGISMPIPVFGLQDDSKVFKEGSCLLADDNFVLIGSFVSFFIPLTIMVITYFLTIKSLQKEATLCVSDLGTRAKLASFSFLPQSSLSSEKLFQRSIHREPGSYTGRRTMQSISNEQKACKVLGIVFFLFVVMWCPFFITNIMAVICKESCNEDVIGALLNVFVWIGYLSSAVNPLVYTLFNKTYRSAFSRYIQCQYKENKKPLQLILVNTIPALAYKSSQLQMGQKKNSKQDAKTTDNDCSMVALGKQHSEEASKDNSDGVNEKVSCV", "experiment": "Ligand binding assay (Eurofins)", "details": "read-out: inhibitory activity (% inhibition of the binding of a specific ligand)", "experimental": "as §1"}, "[5]": {"system": "C57Bl/6 mice", "experiment": "Sucrose preference test", "assay_type": "in vivo", "details": "40 mg/kg, single dose", "experimental": "Thirteen-week-old male C57BL/6 mice, maintained on a STD and housed individually, were habituated to two water bottles in their home cage for 48 h prior to the test. Baseline intake was measured by weighing the bottles. On the test day (day 1), 2 h before the onset of the dark phase, fresh water and a 1.5% sucrose solution were added to the bottles and mice were subsequently treated orally with MEAI (40 mg/kg, N = 8) or sterile water (N = 8). The mice were allowed to freely drink from either bottle for 24 h, after which the bottles were weighed to measure consumption. The study was repeated for an additional day (day 2), with the bottles switched in position (in the cage) to account for side preference. The sucrose and water intake over the 2 days were averaged, and the sucrose preference index was calculated as the average consumed sucrose solution divided by the average volume of total consumed liquid (average water plus average sucrose solution)."}}}
{"molecule": "COc1ccc2c(c1)CC(N)C2.Cl", "note": "(stereo not drawn) [MEAI, 2,3-Dihydro-5-methoxy-1H-inden-2-amine hydrochloride]", "values": [{"measurement": "inhibition at 10 µM", "setting": "[1]", "result": "> 50", "unit": "%"}, {"measurement": "HOMA-IR score", "setting": "[2]", "result": "improved"}, {"measurement": "ISI score", "setting": "[2]", "result": "improved"}, {"measurement": "fasting blood glucose levels", "setting": "[2]", "result": "reduced"}, {"measurement": "glucose metabolism (glucose and insulin tolerance tests)", "setting": "[2]; days 26-27", "result": "significant improvement"}, {"measurement": "inhibition at 10 µM", "setting": "[3]", "result": "> 50", "unit": "%"}, {"measurement": "inhibition at 10 µM", "setting": "[4]", "result": "> 50", "unit": "%"}, {"measurement": "preference for sucrose solution", "setting": "[5]; 1.5% sucrose, most evident during initial 24 h, vs vehicle", "result": "significantly reduced"}, {"measurement": "water intake levels", "setting": "[5]; sucrose preference test", "result": "without any accompanying decrease"}]}
